Experimental data reported in patent publication US12144850B2, “Methods and compositions for car T cell therapy” (PURDUE RESEARCH FOUNDATION, priority 2016, dated 2024).

Experiments:
[1] = tested on: KB (FR+) cells; assay: Cytotoxicity assay of CAR T cells in vitro (LDH release), KB; format: cell-based; conditions: KB (FR+) model, 100 nM conjugate; FIG. 3D
Method: (§1) In order to test cytotoxicity of CAR T cells with desired FITC-ligands, a standard lactate dehydrogenase (LDH) release assay was performed using a Pierce™ LDH cytotoxicity assay kit from ThermoFisher Scientific. To prepare samples for the LDH assay, cancer cells were seeded at a density of 10^4 cells/100 μL of media in each well of a 96 well plate and grown overnight. CAR T cells were prepared the next day at various numbers to have different effector (CAR T cell):target cell (cancer cell) ratios (e.g. E:T=20:1, 10:1, 5:1 and 1:1). FITC-ligands at various concentrations were introduced into each well and co-cultured for 6-24 hours. After co-incubation, the plate containing CAR T cells and cancer cells was centrifuged at 350×g at room temperature for 10 min to remove cell debris or remaining cells. 50 μL of the supernatants of each sample were then transferred into a new 96 well plate. 50 μL of the prepared LDH reaction mixture was added to the transferred 50 μL of each sample and incubated at room temperature for 30 min. 50 μL of stop solution was added and the absorbance of each sample was measured at 490 nm and 680 nm. The percent of cytotoxicity was calculated for each sample by using the equation below: % Cytotoxicity=(Experimental value−effector cells spontaneous−target cells spontaneous)/(Target cell maximum control−target cell spontaneous control)×100

[2] = tested on: LNCaP (PSMA+) cells; assay: Cytotoxicity assay of CAR T cells in vitro (LDH release), LNCaP; format: cell-based; conditions: LNCaP (PSMA+) model, E:T 10:1, 100 nM conjugate; FIG. 3B
Method: as §1

[3] = tested on: HEK293 (NK1R+) cells; assay: Cytotoxicity assay of CAR T cells in vitro (LDH release), HEK293; format: cell-based; conditions: HEK293 (NK1R+) model, E:T 10:1, 100 nM conjugate; FIG. 3C
Method: as §1

[4] = tested on: HEK293 (NK1R+) cells; assay: Anti-tumor efficacy of CAR T cells in vivo, HEK293 (NK1R+) xenograft; design: species or system mice
Method: (§2) Immunodeficient NSG mice (Jackson Laboratory) were used to identify the efficacy of CAR T cell anti-tumor activity in vivo. Each tumor-specific antigen expressing cancer cell line was subcutaneously injected into the shoulder of NSG mice to establish solid tumor xenografts. When tumor volume of around 50-100 mm^3 was reached, CAR T cells were introduced into mice bearing tumors and desired FITC-ligands were also introduced (i.v.) every other day. Control mice were administered PBS instead of FITC-ligands. Tumor volume and cytokine levels in the blood (IL2, IL6, IL10, IFNγ, and TNFα) were measured. General toxicity of the therapy was monitored by measuring weight loss. At the end of each treatment, mouse blood was collected to test for anemia, number of white blood cells and CAR T cell proliferation. Mouse organs were also evaluated.

[5] = tested on: MDA-MB-231 (FR+) cells; assay: Anti-tumor efficacy of CAR T cells in vivo, MDA-MB-231 (FR+) xenograft; design: species or system mice; conditions: during treatment, FIG. 7B
Method: as §2

[6] = tested on: MDA-MB-231(FR+); assay: Two tumors on separate flanks of the same mouse, MDA-MB-231 tumor; format: in vivo, mice
Text: (§3) In order to study whether same anti-FITC CAR T cell can eradicate mixture of heterogeneous cancer cells with cocktail of FITC-ligands, immunodeficient NSG mice (Jackson laboratory) were utilized for the in vivo study. Two different cancer cell lines (e.g. MDA-MB-231(FR+) and HEK(NK1R+)) were implanted into separate flanks on the same mouse. Then, anti-FITC CAR T cell (10^7 cells) was introduced by intravenous injection when tumor volumes reached about 50-100 mm^3. In addition, either a mixture of FITC-ligands (i.e. FITC-PEG12-Folate (500 nmole/kg) and FITC-PEG11-NK1R (500 nmole/kg)), single FITC-PEG11-NK-1R (500 nmole/kg) or PBS was introduced every other day by intravenous injection. The anti-tumor efficacy of CAR T cell with FITC-ligands was analyzed by measuring tumor volume at every other day.

[7] = tested on: HEK(NK1R+); assay: Two tumors on separate flanks of the same mouse, HEK tumor; format: in vivo, mice
Text: as §3

[8] = anti-FITC CAR T cell (10^7 cells) + both FITC-PEG11-NK1R and FITC-PEG12-Folate, 500 nmole/kg each, i.v. every other day, FIG. 19C
[9] = anti-FITC CAR T cell (10^7 cells) + only FITC-PEG11-NK1R 500 nmole/kg i.v. every other day, FIG. 19B

Structure (SMILES)	CAR T cell cytotoxicity to tumor cells as a function of E:T ratio [1]	cytotoxicity of CAR T cells (activation) [2]	cytotoxicity of CAR T cells (activation) [3]	blood indices (cytokine storm) ([4]; HEK-NK1R model, 500 nmoles/kg, FIG. 9)	tumor size ([4]; NSG mice, CAR T cells + conjugate 500 nmol/kg i.v. every other day, FIG. 5A)	body weight ([4]; NSG mice, CAR T cells + conjugate, FIG. 5B)	harvested organs, indications of cytokine release syndrome ([4]; after two weeks of therapy, versus control group, FIGS. 6A-B)	percentage of CAR T cells in human T cells ([4]; post CAR T cell injection along with conjugate, FIG. 5C)	body weight [5]	MDA-MB-231 tumor volume [6, 8]	MDA-MB-231 tumor volume [6, 9]	HEK (NK1R) tumor volume [7, 8]	HEK (NK1R) tumor volume [7, 9]
O=C(O)CC[C@H](NC(=O)N[C@@H](CCC(=O)NCCCCCCCC(=O)N[C@@H](Cc1ccccc1)C(=O)N[C@@H](Cc1ccccc1)C(=O)NCCNC(=S)Nc1ccc(-c2c3ccc(=O)cc-3oc3cc(O)ccc23)c(C(=O)O)c1)C(=O)O)C(=O)O [FITC-DUPA]	a function of the E:T ratio	greater activation than using FITC-Folate or in the absence of a conjugate											
O=C(CN1CCC[C@H](OCc2cc(C(F)(F)F)cc(C(F)(F)F)c2)[C@@H]1c1ccccc1)NCCOCCOCCOCCOCCOCCOCCOCCOCCOCCOCCOCCNC(=S)Nc1ccc(-c2c3ccc(=O)cc-3oc3cc(O)ccc23)c(C(=O)O)c1 [FITC-PEG11-NK1]			greater than activation using FITC-Folate or in the absence of a conjugate	a cytokine storm had not occurred	decreased	unchanged relative to the control mouse	appeared normal in size with no indications of cytokine release syndrome	increased	unchanged during treatment	eliminated	continued growing	eliminated	eradicated
